According to US5545617A, “Therapeutic regulation of abnormal conjunctival goblet cell mucous secretion” (The Schepens Eye Research Institute, Inc., priority 1993, dated 1996):
Values joined by “and” are separate entries in the source; they are usually repeats but may differ in a detail not shown here. Identical values can stand only once. Counter-ions that a name gives are not always drawn. Like-named read-outs stand apart in the source and are kept apart here.

Experiments:
[1] = system: conjunctival goblet cell mucous secretion; details: cited from earlier work
[2] = system: conjunctival goblet cell mucous secretion; details: 100 μg topical, rabbits, cited from earlier work
[3] = system: conjunctival goblet cell mucous secretion; assay: in vivo rat model: topical agents, density of mucin-containing goblet cells (alcian blue/PAS);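 on all read-outs here: rat eyes dosed topically with 20 µl drops every 20 min over 1 hr, non-secreted goblet cells counted in three 0.16 mm^2 conjunctival areas, lower density means more mucous secretion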; details: for (Stimulus) Optimal Effective Conc. (M): Table 1; for (Stimulus) Max % Increase in Secretion: Table 1, at optimal effective conc.; for conjunctival goblet cell mucous secretion (in words): topical application, summary of Example II; for concentration giving the maximum effect on goblet cell density: topical; for goblet cell mucous secretion (in words): summary of Example I
Method: Thus, the in vivo rat model can be used to study conjunctival goblet cell mucous secretion. With this model, the ocular surface of anesthetized rats is treated topically or subconjunctivally. After treatment, the animals are euthanized, the ocular surface is fixed, conjunctival tissue is removed and mucus in the secretory granules of goblet cells stained with alcian blue and periodic acid-Schiff's (PAS) reagents to indicate mucin-containing goblet cells. The number of mucin-containing goblet cells is then determined. A decrease in the number of mucin-containing goblet cells indicates an increase in goblet cell secretion.
To determine the effect of topically applied solutions, experimental solutions (20 μl drops) were placed on each eye from the temporal region every 20 min for 1 hr. The solutions were carefully removed with a cotton-tipped applicator from the nasal region of the eyes before placement of the next drop or before euthanization. […] Because conjunctival goblet cell density is not uniform throughout the conjunctiva, care was taken to use a specific area for sampling. […] Conjunctival buttons were then dissected and tissue placed epithelial side up on gelatin-coated, glass microscope slides. […] Mucin contained in the secretory granules of the goblet cells was stained with alcian blue and periodic acid-Schiff (PAS) stain (79). The number of mucin-containing goblet cells was counted in a masked fashion using light microscopy (standard Zeiss microscope) at 160× magnification. The density of mucin-containing goblet cells was determined by averaging counts of goblet cells in three 0.16 mm^2 areas in each button. A decrease in mucin containing goblet cell number per unit area (density) indicated an increase in mucous secretion.
The mucin-containing goblet cells stained purple and fuchsia with alcian blue and PAS, respectively. By focusing through the tissue, cells with moderate to intense staining and sharp, defined cell borders were considered non-secreted and were counted. Cells with very light stain, absence of color, indistinguishable color from background staining and fuzzy borders were considered cells that had secreted mucus and were not counted. Following these criteria, the non-secreted mucin-containing goblet cells in the three 0.16 mm^2 areas were counted, averaged and expressed as mucin-containing goblet cell density. Therefore, a decrease in mucin-containing goblet cell density indicated mucous secretion.
To determine the effect of topically applied compounds, an experimental buffer containing the test compound (20 μl drops) was placed on one eye from the temporal region every 20 min for 1 hr unless otherwise indicated. […] The solutions were removed from the nasal region of the eye with a cotton-tipped applicator. After the 1 hr protocol, animals were euthanized with sodium pentobarbital.

[4] = system: conjunctival goblet cell mucous secretion; assay: local anesthetics on sensory stimulation (corneal debridement) of goblet cell mucous secretion; type: in vivo, rat
Method: Rats were anesthetized with sodium pentobarbital (65 mg/kg).
Fifteen min after application of local anesthetic, the central cornea of one eye was wounded by debridement (2-3 mm diameter area), the other was sham-debrided and 5 min later the animal was euthanized with intraperitoneal sodium pentobarbital ([…]).

[5] = system: conjunctival goblet cells; assay: light microscopy of H and E stained conjunctival sections after topical lidocaine; type: in vivo, rat; details: 1% topical
Method: The globe of the eye was excised. The posterior half of the globe was removed, followed by removal of the lens and iris. The remaining tissue (the ocular surface) including the cornea, the limbus, and the bulbar conjunctiva was frozen in O. C. T. Compound (Miles Inc., Elkart, Ind.).
Tissue sections (20 μm) were prepared from the ocular surface and stained with hematoxylin and eosin (H and E). Sections were examined using an Olympus Microscope (BH-2; Micro-Tech Optical, Inc., Hudson, Mass.).

[6] = system: conjunctival goblet cell density; details: long term exposure of rabbit ocular surface; cited from earlier work
[7] = 10^-8 M topical, 1 hr, inferior conjunctiva
[8] = 10^-4 M topical, 1 hr, inferior conjunctiva
[9] = 10^-8 M topical, 1 hr, Example II

Nc1ncnc2c1nc(Br)n2[C@@H]1O[C@@H]2COP(=O)(O)O[C@H]2[C@H]1O [8-Br-cAMP]
mucin discharge [1]: unaffected

Nc1nc2c(nc(Br)n2[C@@H]2O[C@@H]3COP(=O)(O)O[C@H]3[C@H]2O)c(=O)[nH]1 [8-Br-cGMP]
mucin discharge [1]: 2-3 fold

CCCC[C@H](C)C(O)C#CC1CCC(=O)C1C/C=C\CCCC(=O)OC (stereo partly drawn) [FCE20700, 11-deoxy-13,14-didehydro-16(S)-methylester methyl PGE2]
goblet cells with mucous secretion ([2]; 0.5 hr): 86.9% | goblet cells with mucous secretion ([2]; 2.5 hr): 90.3%

C[N+](C)(C)CCOC(N)=O.[Cl-] [carbachol, carbamyl choline chloride]
effect on mucin-containing goblet cell density ([3]; 10^-5 -10^-4 M topical): not at 10^-5 -10^-4 M | decrease in mucin-containing goblet cell density from contralateral control eye ([3]; 10^-6 M topical, 1 hr): 40% | effect on mucin-containing goblet cell density ([3]; 10^-7 M topical): decreased mucin-containing goblet cell density | (Stimulus) Optimal Effective Conc. (M) [3]: 10^-6 M | (Stimulus) Max % Increase in Secretion [3]: 41% | conjunctival goblet cell mucous secretion (in words) [3]: stimulate conjunctival goblet cell mucous secretion | concentration giving the maximum effect on goblet cell density ([3]; 1 hr, Example II): 10^-6 M

CCCCC(C)(C)[C@H](O)/C=C/[C@H]1[C@H](O)CC(=O)[C@@H]1C/C=C\CCCC(=O)O [dmPGE2, 16,16-dimethyl-prostaglandin E2]
mucin-containing goblet cell density, inferior bulbar conjunctiva ([3]; 1 μM topical, 1 hr, vs control): did not differ significantly from control values | mucin-containing goblet cell density, inferior bulbar conjunctiva ([3]; 10 μM topical, 1 hr, vs control): did not differ significantly from control values | decrease in mucin-containing goblet cell density from buffer-treated eyes ([3]; 100 μM topical, 1 hr, inferior conjunctiva): 30% and 39% | mucin-containing goblet cell density, inferior bulbar conjunctiva ([3]; 100 μM topical, 1 hr, mean±SE): 36±12 goblet cells/0.16 mm^2 | goblet cell mucous secretion (in words) ([3]; 100 μM topical): increased goblet cell mucous secretion from inferior but not superior conjunctiva | mucin-containing goblet cell density, superior bulbar conjunctiva ([3]; 100 μM, 10 μM, 1 μM topical, 1 hr, vs contralateral control or buffer-treated eyes): Neither 100 μM, 10 μM, nor 1 μM dmPGE2 significantly altered the density | electron microscopy of goblet cells, inferior bulbar conjunctiva ([3]; 600 μM (FIG. 5B)): the goblet cells secreted mucous onto the ocular surface

NCCc1ccc(O)c(O)c1 [dopamine, 3-hydroxytyramine]
decrease in mucin-containing goblet cell density from contralateral control [3, 7]: 64% | (Stimulus) Optimal Effective Conc. (M) [3]: 10^-8 M | (Stimulus) Max % Increase in Secretion [3]: 64% | conjunctival goblet cell mucous secretion (in words) [3]: stimulate conjunctival goblet cell mucous secretion | concentration giving the maximum effect on goblet cell density ([3]; 1 hr, Example II): 10^-8 M

CNC[C@H](O)c1ccc(O)c(O)c1 [epinephrine, (-)-epinephrine]
electron microscopy of goblet cells, inferior bulbar conjunctiva ([3]; 1 μM (FIG. 5D)): some of the goblet cells secreted mucus onto the ocular surface in an all or none fashion | goblet cell mucous secretion (in words) ([3]; 100 μM topical): stimulated mucous secretion | decrease in mucin-containing goblet cell density from contralateral control [3, 8]: 46% | mucin-containing goblet cell density, inferior conjunctiva ([3]; 10^-4 M topical, 1 hr, Example I, P<0.04 vs buffer): 159±35 cells | mucin-containing goblet cell density, inferior conjunctiva ([3]; 10^-6 M topical, 1 hr, Example I, unchanged vs buffer): 200±33 cells | mucin-containing goblet cell density, inferior conjunctiva ([3]; 10^-8 M topical, 1 hr, Example I, unchanged vs buffer): 180±55 cells | (Stimulus) Optimal Effective Conc. (M) [3]: 10^-2 M | (Stimulus) Max % Increase in Secretion [3]: 52% | conjunctival goblet cell mucous secretion (in words) [3]: stimulate conjunctival goblet cell mucous secretion | concentration giving the maximum effect on goblet cell density ([3]; 1 hr, Example II): 10^-4 M

CCN(CC)CC(=O)Nc1c(C)cccc1C [lidocaine, lidocaine hydrochloride]
effect on sensory stimulation of mucous secretion ([4]; 1% sub-conjunctival injection alone): inhibited sensory stimulation of mucous secretion | mucin-containing goblet cells in treated, wounded eyes ([4]; 1% sub-conjunctival injection prior to the wound): 100±28 cells | mucin-containing goblet cells in treated, contralateral sham-wounded eyes ([4]; 1% sub-conjunctival injection, sham-wounded): 98±24 cells | effect on sensory stimulation of mucous secretion ([4]; 1% topical alone): inhibited sensory stimulation of mucous secretion | effect on sensory stimulation of mucous secretion ([4]; 1% topical and sub-conjunctival injection): inhibited the sensory stimulation of goblet cell mucous secretion | mucin-containing goblet cells in treated, contralateral sham-wounded eyes ([4]; 1% topical and sub-conjunctival injection, sham-wounded): 110±25 cells | mucin-containing goblet cells in treated, wounded eyes ([4]; 1% topical and sub-conjunctival injection, then wounded): 132±21 cells | mucin-containing goblet cells in treated, wounded eyes ([4]; 1% topical prior to the wound): 84±7 cells | mucin-containing goblet cells in treated, sham-wounded eyes ([4]; 1% topical, sham-wounded): 78±5 cells | goblet cells detected in H- and E-stained sections ([5]; 5 min (FIG. 6B)): some goblet cells | goblet cells detected in H- and E-stained sections ([5]; 10 min (FIG. 6C)): numerous goblet cells

CNC[C@H](O)c1cccc(O)c1 [phenylephrine, L-phenylephrine hydrochloride]
conjunctival goblet cell density [6]: does not significantly affect conjunctival goblet cell density | decrease in mucin-containing goblet cell density from contralateral control [3, 8]: 40% | (Stimulus) Optimal Effective Conc. (M) [3]: 10^-4 M | (Stimulus) Max % Increase in Secretion [3]: 40% | conjunctival goblet cell mucous secretion (in words) [3]: stimulate conjunctival goblet cell mucous secretion | concentration giving the maximum effect on goblet cell density ([3]; 1 hr, Example II): 10^-4 M

CCCOc1ccc(C(=O)OCCN(CC)CC)cc1N [proparacaine, Proparacaine hydrochloride]
inhibition of sensory stimulation of mucous secretion ([4]; 0.5% topical, 15 min before corneal debridement): unable to inhibit sensory stimulation of mucous secretion

NCCc1c[nH]c2ccc(O)cc12 [serotonin, 5-hydroxytryptamine]
decrease in mucin-containing goblet cell density from contralateral control [3, 7]: 54% | mucin-containing goblet cell density, inferior conjunctiva [3, 9]: 148±27 cells | (Stimulus) Optimal Effective Conc. (M) [3]: 10^-8 M | (Stimulus) Max % Increase in Secretion [3]: 54% | conjunctival goblet cell mucous secretion (in words) [3]: stimulate conjunctival goblet cell mucous secretion | concentration giving the maximum effect on goblet cell density ([3]; 1 hr, Example II): 10^-8 M

Substance P
decrease in mucin-containing goblet cell density from contralateral control eye ([3]; 10^-6 M topical, 1 hr): 58% | mucin-containing goblet cell density ([3]; 10^-6 M topical, 1 hr, Example II): 77±18 cells | effect on mucin-containing goblet cell density ([3]; 10^-10 or 10^-8 M topical): not at 10^-10 or 10^-8 M | (Stimulus) Optimal Effective Conc. (M) [3]: 10^-6 M | (Stimulus) Max % Increase in Secretion [3]: 42% | conjunctival goblet cell mucous secretion (in words) [3]: stimulate conjunctival goblet cell mucous secretion

Vasoactive Intestinal Peptide [VIP]
decrease in mucin-containing goblet cell density from contralateral control [3, 7]: 39% | mucin-containing goblet cell density, inferior conjunctiva [3, 9]: 150±23 cells | (Stimulus) Optimal Effective Conc. (M) [3]: 10^-8 M | (Stimulus) Max % Increase in Secretion [3]: 39% | conjunctival goblet cell mucous secretion (in words) [3]: stimulate conjunctival goblet cell mucous secretion | concentration giving the maximum effect on goblet cell density ([3]; 1 hr, Example II): 10^-8 M
